The results in this text go back to paper PMC8297402, “Trifluoromethyl-substituted 3,5-bis(arylidene)-4-piperidones as potential anti-hepatoma and anti-inflammation agents by inhibiting NF-кB activation” (Journal of Enzyme Inhibition and Medicinal Chemistry, 2021).

SMILES strings stand for the structures. Where two headings read alike, the source gives them in different places.

Data set [1] can be described thus: Modified MTT cytotoxicity assay, normal heptical cell line LO2. Particulars: human, LO2 cells (normal hepatic cell line), 24 h incubation. The data set is classed as cell-based, human. In a few lines:
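HepG2 grown in DMEM, SMMC-7721 and LO2 in RPMI 1640, each with 10% FBS; ~8 × 10^3 cells/well. Compounds at 0.3125-10 μg/mL for 24 h at 37 °C, then MTT for 4 h. IC50 as mean of three replicates.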

The subject of data set [2] is p-p65. As to the kind of experiment: Western blot, LPS-stimulated phosphorylation of p65 in RAW264.7 cells. The note with it: RAW264.7, 1.0, 2.0, 4.0 μM, LPS 1.0 μg/mL 30 min. The data set is classed as cell-based, mouse. The text has this: (§1) Primary antibodies (anti-Bax, Abcam, ab32503; anti-Bcl-2, Abcam, ab194583; anti-Cleaved caspase-3, Abcam, ab2302; anti-p65, Cell Signalling Technology, 8242S; anti-p-p65, Cell Signalling Technology, 3033S; anti-IκBα, Cell Signalling Technoligy, 4812S; anti-p-IκBα, Cell Signalling Technology, 2859S; anti-p38, Cell Signalling Technology, 8690S; anti-p-p38, Cell Signalling Technology, 4511S; anti-JNK, Cell Signalling Technology, 9258 T; anti-p-JNK, Santa Cruz Biotechnology, sc-6254; anti-GAPDH, Abcam, ab181602), and goat anti-rabbit IgG/HRP secondary antibodies (Cell Signalling Technology, 98164 s) were purchased and used according to the manufacturer’s instructions. HepG2 cell lines were incubated with different doses of BAP 16 (1.0, 2.0, 4.0 μM) for 24 h (Bax, Cleaved caspase-3, Bcl-2). RAW264.7 cells were incubated with BAP 16 for 1 h, then treated with LPS (1.0 μg/mL) for 30 min. Afterward cell extraction was performed and extracts were used for Western blot analysis. Next, 30 μg protein of cell lysates were separated by 12% SDS-PAGE gel. The proteins were then transferred onto nitrocellulose membranes. […] By using Quantity One software (Bio-Rad), western blotting results were quantified from more than three separate experiments.

Data set [3] deals with TNF-α. As to the kind of experiment: ELISA of TNF-α release in LPS-stimulated RAW264.7 cells. The data set is classed as cell-based, mouse. Particulars: Mus musculus. In a few lines:
(§2)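 RAW264.7 cells pretreated 2 h with compound at 5.0 μM (PDTC 30 μM as reference), then stimulated with LPS 1.0 μg/mL for a further 22 h. Secreted TNF-α and IL-6 in the culture media quantified by ELISA.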

The subject of data set [4] is A549. As to the kind of experiment: Modified MTT cytotoxicity assay, A549.
In data set [5] the test system is C-Caspase-3. Nature of the data set: Western blot, C-Caspase-3 expression in HepG2 cells. The data set is classed as cell-based, Human. Particulars: HepG2, 1.0, 2.0, 4.0 μM, 24 h.
From the text: as §1

Data set [6] concerns p-p38. Nature of the data set: Western blot, LPS-induced phosphorylation of p38 in RAW264.7 cells. The data set is classed as cell-based, mouse. Particulars: RAW264.7, 1.0, 2.0, 4.0 μM, LPS 1.0 μg/mL 30 min.
From the text: as §1

Data set [7] has as its system IL-6. Nature of the data set: ELISA of IL-6 release in LPS-stimulated RAW264.7 cells. The data set is classed as cell-based, mouse. Particulars: Mus musculus, RAW264.7, BAPs (5 μM) + LPS (1 μg/mL), RAW264.7, ELISA; read-out: Inhibition rate IL-6. In a few lines: as §2
The subject of data set [8] is RAW264.7 cell. Nature of the data set: MTT toxicity pre-experiment on RAW264.7 macrophagocyte. The data set is classed as cell-based, mouse. The method, boiled down: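 Cytotoxicity toward RAW264.7 macrophages determined by MTT assay with compounds at 5.0 μM, expressed as cell survival rate.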
In data set [9] the test system is A2780. Nature of the data set: Modified MTT cytotoxicity assay, A2780.
Data set [10] can be described thus: Modified MTT cytotoxicity assay, normal heptical cell line HHL-5. Particulars: human, HHL-5 cells (normal hepatic cell line).

In data set [1], `O=C1C(=Cc2cccc(C(F)(F)F)c2)CN(S(=O)(=O)c2ccc(C(F)(F)F)cc2)CC1=Cc1cccc(C(F)(F)F)c1` [BAP 16] displayed a 50% inhibitory concentration (IC50) at 24 h of about 17.8 µM. Also, the “Expression level of p-p65” value in data set [2] was “significantly decreased in a dose-dependent manner”. Further, the inhibition at 5 µM was about 83.2% in [3] (RAW264.7, BAPs (5 μM) + LPS (1 μg/mL), RAW264.7, ELISA, read-out: Inhibition rate TNF-α); 81.2% in data set [3] (RAW264.7, average of TNF-α and IL-6, 5 μM + LPS, RAW264.7, read-out: Inhibition rates against IL-6 and TNF-α cytokine release, average); about 79.2% in data set [7]. In addition, the IC50 in data set [4] (Homo sapiens, A549, read-out: Cytotoxicity IC50 A549, MTT, non-small cell lung cancer cell line) worked out at 430 ± 80 nM; in [9] (Homo sapiens, A2780, read-out: Cytotoxicity IC50 A2780, MTT, ovarian cancer cell line), 270 ± 20 nM; in data set [10], 6.2 ± 0.4 µM. For the same molecule, the “SI (selectivity index) A549” value in data set [4] (quotient of IC50 for normal (HHL-5) and malignant (A549) cells) was 14.4. Further, the “Expression of pro-apoptotic protein C-Caspase-3” value in data set [5] was “significantly increased”. Moreover, in data set [6], the “Expression level of p-p38” value is reported as “significantly decreased”. Further, the “Survival rate RAW264.7 cell” value in data set [8] (BAPs 5 μM) turned out to be 88.6 ± 3.7%. For the same molecule, in data set [8] (Mus musculus, RAW264.7, BAPs 5 μM, read-out: Survival rate RAW264.7 cell), the viability at 5 µM came out at 88.6%. Moreover, the “SI (selectivity index) A2780” value in data set [9] (quotient of IC50 for normal (HHL-5) and malignant (A2780) cells) is 23.0.
